Paper doi:10.1101/2025.04.16.649181, “Design of peptide-based PAC1 antagonists combining molecular dynamics simulations and a biologically relevant cell-based assay” (bioRxiv, 2025)
No end group written: not given here.

Legend:
[1] = target: T1, PAC1 (endogenous, mainly PAC1null, SH-SY5Y) (Homo sapiens, UniProt P41586); test: CBS assay, antagonism of P27-induced cAMP in SY5Y_CBS cells; assay type: cell-based
T1 construct: Neuroblastoma SH-SY5Y cells endogenously xpressing hPAC1 and engineered to express CBS; endogenous in cells
T1 sequence (P41586 21-468): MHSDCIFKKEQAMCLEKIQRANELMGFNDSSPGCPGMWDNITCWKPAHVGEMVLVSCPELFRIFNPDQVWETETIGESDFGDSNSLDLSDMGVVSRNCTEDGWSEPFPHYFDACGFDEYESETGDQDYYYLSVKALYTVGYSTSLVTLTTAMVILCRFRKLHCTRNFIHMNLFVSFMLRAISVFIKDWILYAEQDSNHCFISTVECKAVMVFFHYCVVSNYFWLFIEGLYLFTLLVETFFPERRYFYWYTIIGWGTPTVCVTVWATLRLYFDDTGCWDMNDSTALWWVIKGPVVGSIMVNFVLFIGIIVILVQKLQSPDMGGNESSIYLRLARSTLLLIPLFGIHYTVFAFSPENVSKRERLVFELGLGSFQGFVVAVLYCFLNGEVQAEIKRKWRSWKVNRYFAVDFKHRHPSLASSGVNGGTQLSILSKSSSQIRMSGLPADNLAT
From the text: (§1) A single clone of the SH-SY5Y cell line stably expressing a cAMP biosensor (SY5Y_CBS) was generated as previously described for HEK293_CBS and NS-1_CBS cells, using the retroviral vector pLHCX containing the cAMP biosensor and a hygromycin resistance gene. A HEK293_CBS_hPAC1 cell clone was generated by transducing HEK293_CBS cells with the lentiviral vector pLX304 (GeneCopoeia, Rockville, MD) encoding the human PAC1hop (PAC1; GenBank accession no. BC143679) and a blasticidin resistance gene . Following transduction, cells were selected with the appropriate antibiotics (hygromycin or blasticidin) for 2 weeks. Single-cell clones were subsequently isolated by limiting dilution and assessed for PACAP-induced cAMP production using concentration-response assays.
(§2) The cyclic AMP biosensor (CBS) assay was performed using Gibco CO2-independent medium (ThermoFisher, catalog #18045-088). HEK293_CBS_hPAC1 or SY5Y_CBS cells were seeded in 96-well black/clear-bottom plates (MidSci, Fenton, MO) at a density of 6,000 cells per well and incubated overnight. The following day, the medium in each well was aspirated and replaced with fresh medium containing 1.5 mg/mL D-luciferin potassium salt substrate (Gold Biotechnology, St. Louis, MO) and 500 μM isobutyl-1-methylxanthine (IBMX), followed by incubation at 37 °C for 1 hour. Cells were then pre-treated with antagonists for 10 minutes before the addition of agonists (PACAP or forskolin). Plates were incubated at 37 °C for 1 hour, then brought to room temperature and equilibrated for 30 minutes. Luminescence was measured using a GloMax plate reader (Promega, Madison, WI).
For the high-throughput CBS screening assays, cells were plated at 2,000 (HEK293_CBS_hPAC1) or 3,000 (SY5Y_CBS) cells per well in […] of Gibco CO2-independent medium, in white 1,536-well tissue culture treated plates. After overnight incubation at 37 °C and 5% CO2, […] of luciferin/IBMX solution was added to the wells (final concentrations of 500 μM each) and plates were incubated at 37 °C for 1 hour. SMOLs (22.5 nL) were transferred to the assay plate, using a pintool device (HEK293 screen) or an ECHO acoustic liquid handler (Beckman Coulter, Brea, CA, SY5Y screen), to final concentrations (4 concentrations per compound) between 0.5 and 30 μM and cells were incubated at 37 °C for 1 hour (HEK293 screen) or 10 minutes (SY5Y screen). […] For forskolin counterscreening in SY5Y cells, forskolin instead of peptide was dispensed to the plate at a final concentration of 5 μM.
(§3) GraphPad Prism ver. 9.0 or 10.0 (GraphPad Software Inc, Boston, MA) was used for data analysis. Concentration response curves were created using a four parameter logistic regression model. EC80 and IC50 parameters were obtained using non-linear regression curve fitting tools. EC80 was calculated as the effective concentration of the agonist required to produce 80% of the maximal response. IC50 was calculated as the concentration of the antagonist that produced 50% of the response induced by an agonist (either PACAP or forskolin) in the absence of the antagonist. Seven or eight different concentrations and three technical replicates per concentration were used for curve fitting. All data are presented as mean ± standard error of the mean (SEM).

[2] = target: T1, PAC1 (endogenous, mainly PAC1null, SH-SY5Y); test: CBS assay, antagonism of P38-induced cAMP in SY5Y_CBS cells; assay type: cell-based
From the text: as §1, §2, §3

[3] = target: T1, PAC1 (endogenous, mainly PAC1null, SH-SY5Y); test: Direct cAMP ELISA, antagonism of P38 in SY5Y_CBS cells; assay type: cell-based
Protocol: Direct cAMP determinations were made using the DetectX® Direct Cyclic AMP Enzyme Immunoassay Kit (Arbor Assays, Ann Arbor, MI). SY5Y_CBS cells (200,000 cells per well) or HEK293_CBS cells (10,000 cells per well) were seeded into 96-well plates one day prior to the assay. These cell densities were optimized to ensure agonist responses fell within the linear range of the cAMP standard curve (0.16-10 pmol/mL cAMP). On the day of the assay, the medium was removed and replaced with fresh medium containing 500 μM IBMX. After a 20-minute incubation at 37 °C, antagonists were added and incubated for 10 minutes at 37 °C, followed by the addition of agonists for 30 minutes at 37 °C. Following the final incubation, the medium was aspirated, and cells were lysed with 200 μL of lysis buffer (provided in the kit) for 10 minutes at room temperature. Samples were then snap-frozen and stored at −80 °C overnight and thawed the next day to ensure complete cell lysis. The assay was completed by sequentially adding the cAMP peroxidase conjugate, anti-cAMP sheep antibody, substrate, and stop solution, according to the manufacturer’s instructions. Optical density was measured at 450 nm using a microplate spectrophotometer (Molecular Devices, San Jose, CA). Standard curves and data analysis were performed using GraphPad Prism with a sigmoidal four-parameter nonlinear regression model. Experiments conducted on different days with independently plated and assayed cells were considered biological replicates. Each experiment included three technical replicates.
as §3

human PAC1hop (hPAC1) = test: cAMP biosensor (CBS) assay, agonist responses in HEK293_CBS_hPAC1; assay type: cell-based; settings: HEK293_CBS_hPAC1, IBMX pretreated, luminescence
From the text: as §1, §2
GraphPad Prism ver. 9.0 or 10.0 (GraphPad Software Inc, Boston, MA) was used for data analysis. Concentration response curves were created using a four parameter logistic regression model. EC80 and IC50 parameters were obtained using non-linear regression curve fitting tools. EC80 was calculated as the effective concentration of the agonist required to produce 80% of the maximal response. […]

PAC1 [4] = test: CBS assay in NS-1 cells, endogenous PAC1; assay type: cell-based, rat; settings: NS-1 cells expressing CBS, n = 3
Protocol: Cell culture reagents were purchased from ThermoFisher Scientific (Waltham, MA) unless otherwise noted. Neuroscreen-1 (NS-1) cells (Cellomics, Halethorpe, MD) were grown on flasks or plates coated with Collagen I (rat tail) as described previously. NS-1 cells were cultured in RPMI-1640 media supplemented with 10% horse serum and 5% heat-inactivated Fetal Bovine Serum (Hyclone, Logan, UT). HEK293 and SH-SY5Y cells were purchased from ATCC (Gaithersburg, MD) and cultured with DMEM medium with 10% FBS. All cell culture medium were supplemented with 2 mM glutamine, 100 U/ml penicillin, and 100 μg/ml streptomycin.
A single clone of the SH-SY5Y cell line stably expressing a cAMP biosensor (SY5Y_CBS) was generated as previously described for HEK293_CBS and NS-1_CBS cells, using the retroviral vector pLHCX containing the cAMP biosensor and a hygromycin resistance gene. […] Single-cell clones were subsequently isolated by limiting dilution and assessed for PACAP-induced cAMP production using concentration-response assays.
The cyclic AMP biosensor (CBS) assay was performed using Gibco CO2-independent medium (ThermoFisher, catalog #18045-088). […] Luminescence was measured using a GloMax plate reader (Promega, Madison, WI).
GraphPad Prism ver. […] EC80 was calculated as the effective concentration of the agonist required to produce 80% of the maximal response. […]

[5] = target: PAC1 endogenously expressed in SH-SY5Y cells (human (endogenous in SH-SY5Y)) (UniProt P41586)
[6] = target: PAC1 endogenously expressed in SH-SY5Y cells (human (endogenous in SH-SY5Y)) (UniProt P41586); remark: listed apart in the source
PAC1 [7] = settings: ref 15 (maxadilan); cited from earlier work
From the text: Similarities include initial binding events between the C-terminal domain of the peptide with the extracellular domain (ECD) followed by insertion of the N-terminus of the peptide into the core of the receptor to enable activation, but with differences in binding poses in the C-terminus explaining in part the ligand selectivity of each receptor [13]. Empirica ...

HEK293_CBS cells = test: cAMP biosensor (CBS) assay, agonist responses in parental HEK293_CBS; assay type: cell-based
[8] = target: T1, PAC1 (endogenous, mainly PAC1null, SH-SY5Y); test: CBS assay, agonist potency in SY5Y_CBS cells; assay type: cell-based
From the text: A single clone of the SH-SY5Y cell line stably expressing a cAMP biosensor (SY5Y_CBS) was generated as previously described for HEK293_CBS and NS-1_CBS cells [30], using the retroviral vector pLHCX containing the cAMP biosensor and a hygromycin resistance gene. […] Following transduction, cells were selected with the appropriate antibiotics (hygromycin or blasticidin) for 2 weeks. Single-cell clones were subsequently isolated by limiting dilution and assessed for PACAP-induced cAMP production using concentration-response assays.

[9] = 0.2 nM P38 (EC80), SY5Y_CBS, mean ± SEM, three independent experiments, Figure 11B, read-out: IC50 of P6-38 C-terminal mutants in CBS assay
[10] = 1 nM P38, average of two independent experiments, read-out: IC50 Average in ELISA assay
[11] = 1 nM P38, range of two independent experiments, read-out: IC50 Range in ELISA assay

CSCC[C@H](NC(=O)[C@H](CCC(N)=O)NC(=O)[C@H](CCCCN)NC(=O)[C@H](CCCNC(=N)N)NC(=O)[C@H](Cc1ccc(O)cc1)NC(=O)[C@H](CCCNC(=N)N)NC(=O)[C@H](CO)NC(=O)[C@H](Cc1ccc(O)cc1)NC(=O)[C@H](CO)NC(=O)[C@H](CC(=O)O)NC(=O)[C@@H](NC(=O)[C@@H](N)Cc1ccccc1)[C@@H](C)O)C(=O)N[C@@H](C)C(=O)N[C@H](C(=O)N[C@@H](CCCCN)C(=O)N[C@@H](CCCCN)C(=O)N[C@@H](Cc1ccc(O)cc1)C(=O)N[C@@H](CC(C)C)C(=O)N[C@@H](C)C(=O)N[C@@H](C)C(=O)N[C@H](C(=O)N[C@@H](CC(C)C)C(=O)NCC(=O)N[C@@H](CCCCN)C(=O)N[C@@H](CCCNC(=N)N)C(=O)N[C@@H](Cc1ccc(O)cc1)C(=O)N[C@@H](CCCCN)C(=O)N[C@@H](CCC(N)=O)C(=O)N[C@@H](CCCNC(=N)N)C(=O)N[C@H](C(=O)N[C@@H](CCCCN)C(=O)N[C@@H](CC(N)=O)C(=O)N[C@@H](CCCCN)C(N)=O)C(C)C)C(C)C)C(C)C [P6-38, reference compound]
IC50 ([1]; IC50 against P27 (estimated from Figure 5B), 0.2 nM P27 (EC80), SY5Y_CBS): ~20 nM | IC50 [2, 9]: 117 ± 19 nM | IC50 ([2]; IC50 against P38 (Figure 9C), 0.2 nM P38, CBS assay, mean ± SEM, three independent experiments): 52 ± 13 nM | IC50 ([2]; IC50 against P38 (estimated from Figure 5B), 0.2 nM P38 (EC80), SY5Y_CBS, CBS assay): ~100 nM | IC50 [3, 10]: 114 nM | IC50 [3, 11]: 86 to 142 nM

P27: PACAP 1-27, endogenous PAC1 agonist (HSDGIFTDSYSRYRKQMAVKKYLAAVL; ends and bridges not checked)
agonist response (cAMP) (human PAC1hop (hPAC1)): highly responsive to P38 and P27 with similar potency and efficacy

pituitary adenylate cyclase-activating polypeptide (PACAP) 1-38 (HSDGIFTDSYSRYRKQMAVKKYLAAVLGKRYKQRVKNK-NH2) [P38, endogenous PAC1 agonist]
agonist response (cAMP) (human PAC1hop (hPAC1)): highly responsive to P38 and P27 with similar potency and efficacy | activation of endogenous PAC1 (PAC1 [4]): can be activated by P38

PACAP(6-27) (peptide)
IC50 of inhibition of P27-stimulated (0.2 nM) cAMP elevation (CBS assay) in SY5Y CBS cells; pair that is blocked: m2 + m18 [5]: 100 nM | percent to which P38-induced (0.2 nM) cAMP elevation is blocked (CBS assay) in SY5Y CBS cells, antagonist up to 10 μM; pair that is blocked: m1 + m18 [5]: 50%

pituitary adenylate cyclase-activating polypeptide (PACAP) 1-27 (from UniProt P18509 132-158)
EC80 of cAMP elevation (CBS assay) in SY5Y CBS cells [6]: 0.2 nM

FTDSYSRYRKQMAVKKYLAAVL-NH2 [P6-27]
IC50 ([1]; IC50 against P27 (Figure 8), 0.2 nM P27, SY5Y_CBS, 3 independent experiments): ~100 nM | IC50 ([1]; IC50 against P27, 0.2 nM P27 (EC80), mean ± SEM, n = 3, Figure 7C): 200 ± 55 nM | IC50 ([2]; 0.2 nM P38 (EC80), SY5Y_CBS, three independent experiments, Figure 11B, read-out: IC50 of P6-38 C-terminal mutants in CBS assay): > 1000 nM | IC50 [3, 10]: 3310 nM | IC50 [3, 11]: 370 to 6250 nM

FTDSYSRYRKQMAVKKYLAAVLGK-NH2 [P6-29]
IC50 [2, 9]: > 500 nM | IC50 [3, 10]: 1250 nM | IC50 [3, 11]: 350 to 2150 nM

maxadilan
activity at PAC1 (PAC1 [7]): agonist

FTDSYSRYRKQMAVKKYLAAVLGKR-NH2 [P6-30]
IC50 [2, 9]: 84 ± 26 nM | IC50 [3, 10]: 175 nM | IC50 [3, 11]: 52 to 297 nM

PACAP(6-38) (peptide)
IC50 of inhibition of P27-induced cAMP elevation (CBS assay) in SY5Y CBS cells; pair that is blocked: m2 + m18 [6]: 20 nM | IC50 of inhibition of P38-induced cAMP elevation (CBS assay) in SY5Y CBS cells; pair that is blocked: m1 + m18 [6]: 100 nM

vasoactive intestinal peptide [VIP]
agonist response (cAMP) (human PAC1hop (hPAC1)): highly specific for activation by PACAP, compared to the related peptide VIP | relative potency of PACAP and VIP (HEK293_CBS cells): the potency of PACAP was similar to VIP | response relative to HEK293_CBS_hPAC1 level (HEK293_CBS cells; IBMX pretreated, luminescence): less than 5% | agonist response / relative agonist potency [8]: VIP is a less potent agonist | potency relative to P27 and P38 (times less potent) [8]: about 100 times | EC80 (approximate) ([8]; Figure 5A): ~ 20 nM | EC80 ([8]; mean ± SEM, n = 3): 20 ± 6.2 nM | Hill Slope ([8]; mean ± SEM, n = 3): 1.78 ± 0.35

HSDAVFTDNYTRLRKQMAVKKYLNSILN [vasoactive intestinal peptide]
EC80 of cAMP elevation (CBS assay) in SY5Y CBS cells [6]: 20 nM
